Patent US7074801B1, “Nitrogen-containing condensed cyclic compound having a pyrazolyl group as a substituent group and pharmaceutical composition thereof” (Eisai Co., Ltd., priority 2001, dated 2006)
Structures can show the parent of a compound that is named as a salt. Where two headings read alike, the source gives them in different places.

Tested on: STAT6
Assay: Inhibitory test on STAT6 activation: IL-4-induced alkali phosphatase STAT6 reporter in 293 cells stably expressing the STAT6 gene and STAT6 reporter gene
Assay type: cell-based
Conditions: HEK293, 1 ng/ml human recombinant IL-4, 16 hours, 293 cells with STAT6 reporter, read-out: Inhibitory activity IC50 (concentration at which the alkali phosphatase activity induced by IL-4 was inhibited by 50%)
Experimental: The inhibitory action of the present compound on activation of STAT6 was evaluated according to the following experiments.
1) Construction of a STAT6 Reporter Gene
An oligonucleotide of SEQ ID NO:1 in which three STAT6-binding regions on a human immunoglobulin germline E gene promoter had been linked was mixed with its complementary chain, thermally denatured and annealed, and 5′- and 3′-ends thereof were cleaved with restriction enzymes Kpn I (Code No. 1068A, Takara Shuzo) and Xba I (Code No. 1093A, Takara Shuzo) respectively, and the resulting fragment was cloned into a Kpn I/Xba I site of pUG-BGH-PLAP vector (described in Molecular Pharmacology, 49:860–873, 1996). To induce a basic transcriptional factor, a TK promoter region of herpes virus was cloned into an Xba I/Hind III (Code No. 1060A, Takara Shuzo) site of the pUG-BGH-PLAP vector. To obtain a stably expressing cell strain, a neomycin resistance gene (PGK-neo expression cassette) was integrated with an Sal I (Code No. 1080A, Takara Shuzo) of this vector. Cloning of the TK promoter and PGK-neo expression cassette was carried out according to Molecular Pharmacology, 49:860–873, 1996.
The underlined sites are a Kpn I recognition site and Xba I recognition site respectively. 2) Construction of an STAT6 Expression Vector
An oligonucleotide of SEQ ID NO:2 containing an initiation codon of STAT6 gene and an oligonucleotide of SEQ ID NO:3 containing a stop codon were used, and total RNA was prepared from human peripheral blood cells by using RNeasy Mini kit (Code No. 74104, OIAGEN). Then, cDNA was prepared by reverse transcription reaction using Takara RNA LA PCR kit (Code No. RR012A, Takara Shuzo) and then subjected to PCR reaction with primers of SEQ ID NOS:2 and 3, to amplify the STAT6 gene. • (SEQ ID NO:2) 5′-[…]-3′ The underlined site is an EcoR I recognition site. • (SEQ ID NO:3) 5′-[…]-3′ The underlined site is an Xho I recognition site.
The PCR product was digested with EcoR I (Code No. 1040A, Takara Shuzo) and Xho I (1094A, Takara Shuzo), and the digested fragment was isolated on an agarose gel. The isolated fragment was integrated into a vector fragment obtained by digesting pcDNA3.1 (+) (Code No. U790-20, Invitrogen) vector with EcoRI/Xho I.
3) Introduction of the Gene and Preparation of a Stably Expressing Cell Strain
Human fetal kidney-derived 293 cells (American Type Culture Collection), 3.0×10^5 cells, were spread on a Falcon tissue culture 6-well plate (Code No. 35-3046, Becton Dickinson) and cultured overnight. 1.5 μg of the prepared STAT6 reporter gene, 1.5 μg of the STAT6 gene and 20 μl of lipofectamine (Code No. 18324-012, GIBCO BRL) were mixed in 0.3 ml OPTI-MEM medium (Code No. 31985-070) and left at room temperature for 20 minutes. Thereafter, 1.2 ml OPTI-MEM medium was further added to the cells washed with OPTI-MEM medium not containing fetal bovine serum, and the cells were cultured for 2 hours. 1.5 ml medium containing fetal bovine serum was added thereto, and the cells were cultured for additional 19 hours. The medium was exchanged with a fresh one, and Geneticin (Code No. G-5013, SIGMA) was added at a concentration of 1 mg/ml, and the cells were cultured, and chemical-resistant cells were selected. The resulting chemical-resistant cells were floated in a medium containing 1 mg/ml Geneticin, then spread at a density of 0.5 cell/well on a 96-well microplate (Code No. 35-3072, Becton Dickinson) and cloned to give a clone expressing alkali phosphatase in response to IL-4.
4) Inhibitory Test on STAT6 Activation
The cells stably expressing the STAT6 gene and STAT6 reporter gene and expressing alkali phosphatase in response to IL-4 were spread at a density of 5000 cells/180 μl/well on a 96-well microplate (Code No. 35-3072, Becton Dickinson) and cultured overnight. […]

`O=C(NC1(c2ccc(F)cc2F)CC1)c1ccc(-c2cnc3ccc(-c4cn[nH]c4)cn23)cc1F` [Example 661, N1-[1-(2,4-Difluorophenyl)cyclopropyl]-2-fluoro-4-[6-(1H-4-pyrazolyl)imidazo[1,2-a]pyridin-3-yl]benzamide hydrochloride] showed an IC50 (Table 1) of less than 10 nM.
In the case of `O=C(NC1(c2ccc(F)cc2)CC1)c1ccc(-c2cnc3ccc(-c4cn[nH]c4)cn23)cc1F` [Example 663, N1-[1-(4-Fluorophenyl)cyclopropyl]-2-fluoro-4-[6-(1H-4-pyrazolyl)imidazo[1,2-a]pyridin-3-yl]benzamide hydrochloride], the IC50 (Table 1) is reported as less than 10 nM.
In the case of `O=C(Nc1nc2ccc(F)cc2s1)c1ccc(-c2cnc3ccc(-c4cn[nH]c4)cn23)cc1F` [Example 669, N1-(6-Fluoro-1,3-benzothiazol-2-yl)-2-fluoro-4-[6-(1H-4-pyrazolyl)imidazo[1,2-a]pyridin-3-yl]benzamide dihydrochloride], the IC50 (Table 1) is reported as less than 10 nM.
`O=C(Nc1nc2ccc(OC(F)(F)F)cc2s1)c1ccc(-c2cnc3ccc(-c4cn[nH]c4)cn23)cc1F` [Example 670, N1-[6-(Trifluoromethoxy)-1,3-benzothiazol-2-yl]-2-fluoro-4-[6-(1H-4-pyrazolyl)imidazo[1,2-a]pyridin-3-yl]benzamide dihydrochloride] gave an IC50 (Table 1) of 10 to 100 nM.
`C[C@H](NC(=O)c1ccc(-c2cnc3ccc(-c4cn[nH]c4)cn23)cc1F)C(=O)c1ccc(F)cc1` [Example 672, N1-[(1S)-2-(4-Fluorophenyl)-1-methyl-2-oxoethyl]-2-fluoro-4-[6-(1H-4-pyrazolyl)imidazo[1,2-a]pyridin-3-yl]benzamide hydrochloride] showed an IC50 (Table 1) of less than 10 nM.
`Cc1ccc(C(=O)C(C)(C)NC(=O)c2ccc(-c3cnc4ccc(-c5cn[nH]c5)cn34)cc2F)c(F)c1` [Example 674, hydrochloride] gave an IC50 (Table 1) of less than 10 nM.
For `CCc1ccc(C(=O)C(C)(C)NC(=O)c2ccc(-c3cnc4ccc(-c5cn[nH]c5)cn34)cc2F)cc1` [Example 676, N1-[2-(4-Ethylphenyl)-1,1-dimethyl-2-oxyethyl]-2-fluoro-4-[6-(1H-4-pyrazolyl)imidazo[1,2-a]pyridin-3-yl]benzamide hydrochloride], the IC50 (Table 1) was 10 to 100 nM.
`O=C(Nc1ccc(F)cc1F)c1ccc(-c2cnc3ccc(-c4cn[nH]c4)cn23)cc1F` [Example 678, N1-(2,4-Difluorophenyl)-2-fluoro-4-[6-(1H-4-pyrazolyl)-imidazo[1,2-a]pyridin-3-yl]benzamide hydrochloride] was tested, and the IC50 (Table 1) was less than 10 nM.
`O=C(Nc1ccc(Cl)cn1)c1ccc(-c2cnc3ccc(-c4cn[nH]c4)cn23)cc1F` [Example 680, N1-(5-Chloro-2-pyridyl)-2-fluoro-4-[6-(1H-4-pyrazolyl)-imidazo[1,2-a]pyridin-3-yl]benzamide dihydrochloride] was tested, and the IC50 (Table 1) was less than 10 nM.
With `Cc1ccnc(NC(=O)c2ccc(-c3cnc4ccc(-c5cn[nH]c5)cn34)cc2F)c1` [Example 681, N1-(4-Methyl-2-pyridyl)-2-fluoro-4-[6-(1H-4-pyrazolyl)-imidazo[1,2-a]pyridin-3-yl]benzamide dihydrochloride] the IC50 (Table 1) was less than 10 nM.
`Cc1cc(NC(=O)c2ccc(-c3cnc4ccc(-c5cn[nH]c5)cn34)cc2F)on1` [Example 688, N1-(3-Methylisoxazol-5-yl)-2-fluoro-4-[6-(1H-4-pyrazolyl)-imidazo[1,2-a]pyridin-3-yl]benzamide dihydrochloride] was tested, and the IC50 (Table 1) was less than 10 nM.
With `C=Cc1ccc(NC(=O)c2ccc(-c3cnc4ccc(-c5cn[nH]c5)cn34)cc2F)nc1` [Example 689, N1-(5-Vinyl-2-pyridyl)-2-fluoro-4-[6-(1H-4-pyrazolyl)-imidazo[1,2-a]pyridin-3-yl]benzamide dihydrochloride] the IC50 (Table 1) was less than 10 nM.
With `Fc1cc(Cl)ccc1-c1nc(-c2ccc(-c3cnc4ccc(-c5cn[nH]c5)cn34)cc2)no1` [Example 697, 5-(4-Chloro-2-fluorophenyl)-3-{4-[6-(1H-4-pyrazolyl)-imidazo[1,2-a]pyridin-3-yl]-1,2,4-oxadiazole hydrochloride] the IC50 (Table 1) was 10 to 100 nM.
Compound `O=C(Nc1ccc(-c2cnc3ccc(-c4cn[nH]c4)cn23)cc1F)NC1CCCCC1` [Example 698, N-Cyclohexyl-N′-(2-fluoro-4-[6-(1H-4-pyrazolyl)imidazo[1,2-a]pyridin-3-yl]phenyl}urea hydrochloride] has an IC50 (Table 1) of 10 to 100 nM.
Compound `CC(C)NC(=O)Nc1ccc(-c2cnc3ccc(-c4cn[nH]c4)cn23)cc1F` [Example 699, N-12-Fluoro-4-[6-(1H-4-pyrazolyl)imidazo[1,2-a]pyridin-3-yl] phenyl}-N′-isopropylurea hydrochloride] has an IC50 (Table 1) of 10 to 100 nM.
With `NS(=O)(=O)c1ccc(NC(=O)c2ccc(-c3cnc4ccc(-c5cn[nH]c5)cn34)cc2F)cc1` [Example 700, N1-[4-(Aminosulfonyl)phenyl]-2-fluoro-4-[6-(1H-4-pyrazolyl)imidazo[1,2-a]pyridin-3-yl]benzamide hydrochloride] the IC50 (Table 2) was 10 to 100 nM.
With `CS(=O)(=O)c1ccccc1NC(=O)c1ccc(-c2cnc3ccc(-c4cn[nH]c4)cn23)cc1F` [Example 701, N1-[2-(Methylsulfonyl)phenyl]-2-fluoro-4-[6-(1H-4-pyrazolyl)imidazo[1,2-a]pyridin-3-yl]benzamide hydrochloride] the IC50 (Table 2) was 10 to 100 nM.
With `O=C(Nc1ccc(-c2cnc3ccc(-c4cn[nH]c4)cn23)cc1F)c1ccc(F)cc1` [Example 705, N1-{2-Fluoro-4-[6-(1H-4-pyrazolyl)imidazo[1,2-a]pyridin-3-yl]phenyl}-4-fluorobenzamide hydrochloride] the IC50 (Table 2) was 10 to 100 nM.
`O=C(NCc1cccc(OC(F)F)c1)c1ccc(-c2cnc3ccc(-c4cn[nH]c4)cn23)cc1F` [Example 706, N1-[3-(Difluoromethoxy)benzyl]-2-fluoro-4-[6-(1H-4-pyrazolyl)imidazo[1,2-a]pyridin-3-yl]benzamide hydrochloride] showed an IC50 (Table 2) of less than 10 nM.
With `CC(NC(=O)c1ccc(-c2cnc3ccc(-c4cn[nH]c4)cn23)cc1F)c1ccccn1` (stereo not drawn) [Example 707, N1-[1-(2-Pyridyl)ethyl]-2-fluoro-4-[6-(1H-4-pyrazolyl)-imidazo[1,2-a]pyridin-3-yl]benzamide dihydrochloride] the IC50 (Table 2) was 10 to 100 nM.
In the case of `O=C(NC1=NCCS1)c1ccc(-c2cnc3ccc(-c4cn[nH]c4)cn23)cc1F` [Example 712, N1-(4,5-Dihydro-1,3-thiazol-2-yl)-2-fluoro-4-[6-(1H-4-pyrazolyl)imidazo[1,2-a]pyridin-3-yl]benzamide dihydrochloride], the IC50 (Table 2) is reported as less than 10 nM.
Work on `COC1CCN(C(=O)c2ccc(-n3cnc4ccc(-c5c[nH]nc5-c5ccc(F)cc5)cc43)nc2)C1` (stereo not drawn) [Example 725, 6-{6-[3-(4-Fluorophenyl)-1H-4-pyrazolyl]-1H-benzo[d]imidazol-1-yl}-pyridin-3-yl)-(3-methoxypyrrolidin-1-yl)methanone dihydrochloride] yielded an IC50 (Table 2) of less than 10 nM.
Compound `Fc1cccc(F)c1-c1n[nH]cc1-c1ccc2ncn(-c3ccc(Cl)cn3)c2c1` [Example 727, 1-(5-Chloropyridin-2-yl)-6-[3-(2,6-difluorophenyl)-1H-4-pyrazolyl]-1H-benzo[d]imidazole trihydrochloride] has an IC50 (Table 2) of less than 10 nM.
For `Cc1ccnc(NC(=O)c2ccc(-n3cnc4ccc(-c5cn[nH]c5)cc43)cc2F)c1` [Example 728, N1-(4-Methyl-2-pyridyl)-2-fluoro-4-[6-(1H-4-pyrazolyl)-1H-benzo[d]imidazol-1-yl]benzamide trihydrochloride], the IC50 (Table 2) was less than 10 nM.
